# Earlier results, collected in patent publication US9597313B2 (priority 2006, dated 2017).
# Test system: aflatoxin-N7-guanine adducts
# Settings: 100 mg chlorophyllin three times a day for four months
substance,measurement,value
chlorophyllin,Reduction in median urinary levels of aflatoxin-N7-guanine adducts compared with placebo,55%
